IC50 data for ten molecules are collected here from US20210070748A1, “INHIBITORS OF BRUTONS TYROSINE KINASE” (Pharmacyclics LLC, priority 2015, published 2021).

pIC50: −log10 of the molar value. Structures can show the parent of a compound that is named as a salt. Where two headings read alike, the source gives them in different places.

Assay type in all cases: biochemical
One assay deals with T1, BTK-WT (Homo sapiens, UniProt Q06187).
T1 construct: purified from insect cells as a full-length construct containing an N-terminal 6X-His tag; His6 (N); made in house; host or cells: insect cells (baculovirus Sf21 in Method B)
Nature of the assay: Btk in vitro inhibitory activity (one of Method A TR-FRET, Method B electrophoretic mobility shift, Method C radiometric filter binding). The conditions noted are these: read-out: BTK-WT (IC50).

For a further assay, the target named is T2, JAK3 (Homo sapiens, UniProt P52333).
T2 sequence (P52333 1-1124): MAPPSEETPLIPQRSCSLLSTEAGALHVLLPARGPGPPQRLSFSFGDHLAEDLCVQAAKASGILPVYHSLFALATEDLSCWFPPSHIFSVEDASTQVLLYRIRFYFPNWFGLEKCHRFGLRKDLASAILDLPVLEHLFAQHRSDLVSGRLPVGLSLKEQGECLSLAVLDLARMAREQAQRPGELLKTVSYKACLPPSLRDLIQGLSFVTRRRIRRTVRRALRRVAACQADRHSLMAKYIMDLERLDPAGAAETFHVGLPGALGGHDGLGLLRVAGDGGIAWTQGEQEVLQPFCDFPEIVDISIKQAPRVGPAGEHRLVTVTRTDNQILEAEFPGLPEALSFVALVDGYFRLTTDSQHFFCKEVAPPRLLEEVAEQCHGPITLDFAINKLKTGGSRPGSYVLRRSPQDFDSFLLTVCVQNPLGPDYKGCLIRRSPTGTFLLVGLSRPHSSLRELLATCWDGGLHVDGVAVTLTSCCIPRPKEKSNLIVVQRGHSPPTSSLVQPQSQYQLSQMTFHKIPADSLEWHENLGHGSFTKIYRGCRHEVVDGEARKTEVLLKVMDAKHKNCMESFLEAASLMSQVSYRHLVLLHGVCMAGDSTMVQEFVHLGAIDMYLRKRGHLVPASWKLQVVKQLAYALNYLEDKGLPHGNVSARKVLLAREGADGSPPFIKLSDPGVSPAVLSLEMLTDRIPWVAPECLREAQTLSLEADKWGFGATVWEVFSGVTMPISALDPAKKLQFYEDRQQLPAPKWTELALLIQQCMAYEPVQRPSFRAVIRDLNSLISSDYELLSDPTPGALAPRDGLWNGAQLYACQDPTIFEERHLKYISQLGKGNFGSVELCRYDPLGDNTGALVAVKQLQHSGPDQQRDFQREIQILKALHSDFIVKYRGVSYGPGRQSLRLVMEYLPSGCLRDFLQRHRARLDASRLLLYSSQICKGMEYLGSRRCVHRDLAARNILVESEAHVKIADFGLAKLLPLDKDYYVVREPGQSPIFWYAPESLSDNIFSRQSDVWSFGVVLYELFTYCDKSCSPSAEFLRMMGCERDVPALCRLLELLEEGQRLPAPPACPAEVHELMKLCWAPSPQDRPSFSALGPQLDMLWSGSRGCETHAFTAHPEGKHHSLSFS
Nature of the assay: Inhibition of a panel of kinases, in vitro HotSpot kinase assay: JAK3. The conditions noted are these: 1 μM ATP, read-out: JAK3 (IC50).

In the next assay the target is LCK (Homo sapiens, UniProt P06239). Nature of the assay: Inhibition of a panel of kinases, in vitro HotSpot kinase assay: LCK. The conditions noted are these: 1 μM ATP, read-out: LCK (IC50).
Sequence of LCK (P06239 whole entry): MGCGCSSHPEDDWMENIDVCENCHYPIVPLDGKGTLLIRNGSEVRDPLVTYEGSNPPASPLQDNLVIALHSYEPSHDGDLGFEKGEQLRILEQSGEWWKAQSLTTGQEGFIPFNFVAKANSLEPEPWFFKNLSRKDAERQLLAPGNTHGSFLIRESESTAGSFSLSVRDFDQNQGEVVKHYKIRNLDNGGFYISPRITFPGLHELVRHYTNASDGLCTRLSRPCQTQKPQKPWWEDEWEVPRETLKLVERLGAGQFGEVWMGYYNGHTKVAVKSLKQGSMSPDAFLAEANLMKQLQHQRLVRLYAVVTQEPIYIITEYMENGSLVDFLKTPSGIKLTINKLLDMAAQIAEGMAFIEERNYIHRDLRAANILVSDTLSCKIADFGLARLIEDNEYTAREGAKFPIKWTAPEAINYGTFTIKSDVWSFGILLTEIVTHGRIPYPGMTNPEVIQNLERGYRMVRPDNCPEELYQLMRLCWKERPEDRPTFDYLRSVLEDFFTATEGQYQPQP

T1 sequence (Q06187 whole entry): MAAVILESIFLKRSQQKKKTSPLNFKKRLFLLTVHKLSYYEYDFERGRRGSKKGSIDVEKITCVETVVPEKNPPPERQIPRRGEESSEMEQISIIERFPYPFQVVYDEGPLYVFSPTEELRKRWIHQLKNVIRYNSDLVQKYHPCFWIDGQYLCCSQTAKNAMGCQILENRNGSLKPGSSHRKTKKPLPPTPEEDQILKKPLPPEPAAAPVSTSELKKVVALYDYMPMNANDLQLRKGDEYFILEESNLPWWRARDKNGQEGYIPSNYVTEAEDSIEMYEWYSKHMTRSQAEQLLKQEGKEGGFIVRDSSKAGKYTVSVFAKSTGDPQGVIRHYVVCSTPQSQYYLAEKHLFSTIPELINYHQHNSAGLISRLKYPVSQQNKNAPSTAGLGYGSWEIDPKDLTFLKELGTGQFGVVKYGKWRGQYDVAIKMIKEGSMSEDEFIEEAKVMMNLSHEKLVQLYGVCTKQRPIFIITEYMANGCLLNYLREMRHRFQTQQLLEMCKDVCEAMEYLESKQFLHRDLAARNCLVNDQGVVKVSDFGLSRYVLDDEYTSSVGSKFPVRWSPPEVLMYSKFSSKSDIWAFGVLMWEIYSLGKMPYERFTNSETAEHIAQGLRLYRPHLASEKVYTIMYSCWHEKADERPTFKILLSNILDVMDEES

One may read the pIC50 as −log10 of the IC50, conventionally taken in molar units. As for `CN(C)c1ccc(C(=O)N[C@@H]2CCCN(c3cnc(C(N)=O)c(Nc4ccc(S(C)(=O)=O)cc4)n3)C2)cc1` [Example A-44, 5-[(3R)-3-[4-(dimethylamino)benzamido]piperidin-1-yl]-3-[(4-methanesulfonylphenyl)amino]pyrazine-2-carboxamide], the negative-log IC50 (pIC50) at BTK-WT (Table 10, Formula A-I) is at least 7.00; on JAK3 (Table 10, Formula A-I), 5.00 to 6.00; at LCK (Table 10, Formula A-I) it was below 5.00.

Take `Cc1cc(Nc2nc(N3CCC[C@@H](NC(=O)c4ccc(C(C)C)cc4)C3)cnc2C(N)=O)sn1` [Example A-30, 3-[(3-methyl-1,2-thiazol-5-yl)amino]-5-[(3R)-3-[4-(propan-2-yl)benzamido]piperidin-1-yl]pyrazine-2-carboxamide]: the pIC50 is at least 7.00 at BTK-WT (Table 10, Formula A-I); 5.00 to 6.00 on JAK3 (Table 10, Formula A-I); below 5.00 on LCK (Table 10, Formula A-I).

On to `Cc1cc(Nc2nc(N3CCC(CNC(=O)c4ccc(N(C)C)cc4)CC3)cnc2C(N)=O)sn1` [Example A-77, 5-[4-({[4-(dimethylamino)phenyl]formamido}methyl)piperidin-1-yl]-3-[(3-methyl-1,2-thiazol-5-yl)amino]pyrazine-2-carboxamide], for which the negative-log IC50 (pIC50) at BTK-WT (Table 10, Formula A-I) is at least 7.00; on JAK3 (Table 10, Formula A-I) it was above 7.00; on LCK (Table 10, Formula A-I) it was 6.00 to 7.00.

For `CS(=O)(=O)c1ccc(Nc2nc(N3CCC[C@@H](N4CCN(c5cccc(Cl)c5)C4=O)C3)cnc2C(N)=O)cc1` [Example A-53, 5-[(3R)-3-[3-(3-chlorophenyl)-2-oxoimidazolidin-1-yl]piperidin-1-yl]-3-[(4-methanesulfonylphenyl)amino]pyrazine-2-carboxamide], the pIC50 is at least 7.00 on BTK-WT (Table 10, Formula A-I); 5.00 to 6.00 at JAK3 (Table 10, Formula A-I); above 7.00 on LCK (Table 10, Formula A-I).

With `CN(C)c1ccc(C(=O)N[C@@H]2CCCN(c3cnc(C(N)=O)c(Nc4ccc5ncccc5c4)n3)C2)cc1` [Example A-46, 5-[(3R)-3-[4-(dimethylamino)benzamido]piperidin-1-yl]-3-[(quinolin-6-yl)amino]pyrazine-2-carboxamide hydrochloride], the pIC50 at BTK-WT (Table 10, Formula A-I) is at least 7.00; on JAK3 (Table 10, Formula A-I), 5.00 to 6.00; at LCK (Table 10, Formula A-I), below 5.00.

Consider `C=CC(=O)N1CC[C@H](Nc2nnc(C(N)=O)c(Nc3ccc(C(C)C)cc3)n2)C1` [Example C-31, (S)-3-(1-acryloylpyrrolidin-3-ylamino)-5-(4-isopropylphenylamino)-1,2,4-triazine-6-carboxamide], for which the negative-log IC50 (pIC50) on BTK-WT (Table 12, Formula C-I) is at least 7.00; at JAK3 (Table 12, Formula C-I) it was above 7.00; on LCK (Table 12, Formula C-I), 6.00 to 7.00.

Take `Cc1cc(Nc2nc(N[C@H]3CCCN(C(=O)N(C)C)C3)cnc2C(N)=O)sn1` [Example C-2, 5-{[(3S)-1-(dimethylcarbamoyl)piperidin-3-yl]amino}-3-[(3-methyl-1,2-thiazol-5-yl)amino]pyrazine-2-carboxamide]: the pIC50 at BTK-WT (Table 12, Formula C-I) is at least 7.00; on JAK3 (Table 12, Formula C-I), 6.00 to 7.00; at LCK (Table 12, Formula C-I) it was 6.00 to 7.00.

`Cc1cc(Nc2cc(N3CCC[C@@H](NC(=O)N4Cc5ccccc5C4)C3)cnc2C(N)=O)sn1` [Example A-18, N-[(3R)-1-{6-carbamoyl-5-[(3-methyl-1,2-thiazol-5-yl)amino]pyridin-3-yl}piperidin-3-yl]-2,3-dihydro-1H-isoindole-2-carboxamide]: the pIC50 was at least 7.00 at BTK-WT (Table 10, Formula A-I); below 5.00 at JAK3 (Table 10, Formula A-I); below 5.00 at LCK (Table 10, Formula A-I).

As to `Cc1cc(Nc2nc(N3CCC[C@@H](NC(=O)c4ccc(N5CCCC5)cc4)C3)cnc2C(N)=O)sn1` [Example A-26, 3-[(3-methyl-1,2-thiazol-5-yl)amino]-5-[(3R)-3-[4-(pyrrolidin-1-yl)benzamido]piperidin-1-yl]pyrazine-2-carboxamide], the negative-log IC50 (pIC50) at BTK-WT (Table 10, Formula A-I) was at least 7.00; at JAK3 (Table 10, Formula A-I), 5.00 to 6.00; at LCK (Table 10, Formula A-I), below 5.00.

`CC1(c2ccc(Nc3nc(N4CCC[C@@H](NC(=O)c5ccccc5)C4)cnc3C(N)=O)cc2)CCN(C2CC2)CC1` [Example A-48, 5-[(3R)-3-benzamidopiperidin-1-yl]-3-{[4-(1-cyclopropyl-4-methylpiperidin-4-yl)phenyl]amino}pyrazine-2-carboxamide]: the negative logarithm of the IC50 (pIC50) is at least 7.00 on BTK-WT (Table 10, Formula A-I); above 7.00 on JAK3 (Table 10, Formula A-I); above 7.00 on LCK (Table 10, Formula A-I).
